Measurements published in patent US9783537B2, “3-(4-ethylnylphenyl) pyridopyrimidinone compounds and process for preparation thereof useful as potential anticancer agents” (Council of Scientific & Industrial Research, priority 2013, dated 2017).
Read-outs that look alike come from different tables or passages of the source.

How the values were obtained:
HL-60(TB) = assay: SRB 48 h growth assay, Leukemia HL-60(TB); type: cell-based, human
HOP-62 = assay: SRB 48 h growth assay, Non-small Cell Lung HOP-62; type: cell-based, human; settings: HOP-62, Non-small Cell Lung
NCI-H23 = assay: SRB 48 h growth assay, Non-small Cell Lung NCI-H23; type: cell-based, human; settings: for GI50: Homo sapiens
NCI-H322M = assay: SRB 48 h growth assay, Non-small Cell Lung NCI-H322M; type: cell-based, human
HCC-2998 = assay: SRB 48 h growth assay, Colon HCC-2998; type: cell-based, human; settings: HCC-2998, Colon
KM12 = assay: SRB 48 h growth assay, Colon KM12; type: cell-based, human
SW-620 = assay: SRB 48 h growth assay, Colon SW-620; type: cell-based, human; settings: SW-620, Colon
SF-268 = assay: SRB 48 h growth assay, CNS SF-268; type: cell-based, human; settings: SF-268, CNS
SNB-19 = assay: SRB 48 h growth assay, CNS SNB-19; type: cell-based, human; settings: SNB-19, CNS
LOX IMVI = assay: SRB 48 h growth assay, Melanoma LOX IMVI; type: cell-based, human
MDA-MB-435 = assay: SRB 48 h growth assay, Melanoma MDA-MB-435; type: cell-based, human; settings: MDA-MB-435, Melanoma
SK-MEL-2 = assay: SRB 48 h growth assay, Melanoma SK-MEL-2; type: cell-based, human; settings: SK-MEL-2, Melanoma
SK-MEL-28 = assay: SRB 48 h growth assay, Melanoma SK-MEL-28; type: cell-based, human; settings: SK-MEL-28, Melanoma
OVCAR-5 = assay: SRB 48 h growth assay, Ovarian OVCAR-5; type: cell-based, human; settings: OVCAR-5, Ovarian
ACHN = assay: SRB 48 h growth assay, Renal ACHN; type: cell-based, human
RXF393 = assay: SRB 48 h growth assay, Renal RXF393; type: cell-based, human
SN12C = assay: SRB 48 h growth assay, Renal SN12C; type: cell-based, human
DU-145 = assay: SRB 48 h growth assay, Prostate DU-145; type: cell-based, human; settings: DU-145, Prostate
MCF7 = assay: SRB 48 h growth assay, Breast MCF7; type: cell-based, human
HS578T = assay: SRB 48 h growth assay, Breast HS578T; type: cell-based, human
BT-549 = assay: SRB 48 h growth assay, Breast BT-549; type: cell-based, human; settings: BT-549, Breast
T-47D = assay: SRB 48 h growth assay, Breast T-47D; type: cell-based, human
MDA-MB-468 = assay: SRB 48 h growth assay, Breast MDA-MB-468; type: cell-based, human; settings: MDA-MB-468, Breast
[1] = test system: six leukemia cancer cell lines (CCRF-CEM, HL-60, K-562, MOLT-4, SR and RPMI-8226); assay: in vitro anticancer activity, leukemia panel; type: cell-based; settings: Homo sapiens, exposure at least 48 h, read-out: GI50, range over panel
[2] = in vitro anticancer activity, non-small cell lung panel; type: cell-based; settings: Homo sapiens; nine non-small cell lung cancer cell lines, exposure at least 48 h; read-out: GI50, range over panel
[3] = test system: two prostate cancer cell line (PC-3, DU-145); assay: in vitro anticancer activity, prostate panel; type: cell-based; settings: Homo sapiens; two prostate cancer cell lines, exposure at least 48 h; read-out: GI50, range over panel
[4] = test system: six breast cancer cell line (MCF-7, MDA-MB-231/ATCC, HS 578T, TD-47D, MDA-MB-468 and BT-549); assay: in vitro anticancer activity, breast panel; type: cell-based; settings: Homo sapiens; six breast cancer cell lines, exposure at least 48 h; read-out: GI50, range over panel
[5] = Homo sapiens, read-out: Growth Inhibition GI50
[6] = Homo sapiens, read-out: Log10 GI50 (converted)
[7] = Homo sapiens, read-out: Log10 LC50 (converted)

Which “Log10 TGI50” value (HL-60(TB)) does the source give for `C#Cc1ccc(-n2c(/C=C/c3cc(OC)c(OC)c(OC)c3)nc3ncccc3c2=O)cc1` [4q, (E)-3-(4-Ethynylphenyl)-2-(3,4,5-trimethoxystyryl)pyrido[2,3-d]pyrimidin-4(3H)-one] here?
The value was −4.59.

And the GI50 (HL-60(TB); [5])?
Its GI50 is 3.84 µM.

What about the GI50 (HL-60(TB); [6]) of the same compound?
Its GI50 is 3.8 µM.

What about the CC50 (HL-60(TB); [7]) of the same compound?
The CC50 was greater than 100 µM.

And the “Log10 TGI50” value (HOP-62)?
Its value is greater than −4.00.

And the GI50 (HOP-62; [5])?
The GI50 was 13.3 µM.

What about the GI50 (HOP-62; [6]) of the same compound?
The GI50 was 13.2 µM.

And the CC50 (HOP-62; [7])?
The CC50 was greater than 100 µM.

And the “Log10 TGI50” value (NCI-H23)?
Its value is greater than −4.00.

What about the GI50 (NCI-H23; read-out: Growth Inhibition GI50) of the same compound?
Its GI50 is 17.3 µM.

What about the GI50 (NCI-H23; read-out: Log10 GI50 (converted)) of the same compound?
Its GI50 is 17.4 µM.

And the “Log10 TGI50” value (NCI-H322M)?
Its value is greater than −4.00.

And the GI50 (NCI-H322M; [5])?
The GI50 was 14.1 µM.

And the GI50 (NCI-H322M; [6])?
Its GI50 is 14.1 µM.

What about the CC50 (NCI-H322M; [7]) of the same compound?
The CC50 was greater than 100 µM.

And the “Log10 TGI50” value (HCC-2998)?
The value was greater than −4.00.

What about the GI50 (HCC-2998; [5]) of the same compound?
Its GI50 is 27.5 µM.

What about the GI50 (HCC-2998; [6]) of the same compound?
Its GI50 is 27.5 µM.

And the CC50 (HCC-2998; [7])?
The CC50 was greater than 100 µM.

And the “Log10 TGI50” value (KM12)?
The value was −4.89.

What about the GI50 (KM12; [5]) of the same compound?
Its GI50 is 3.32 µM.

What about the GI50 (KM12; [6]) of the same compound?
Its GI50 is 3.31 µM.

What about the CC50 (KM12; [7]) of the same compound?
Its CC50 is greater than 100 µM.

What about the GI50 (SW-620; [5]) of the same compound?
Its GI50 is 3.29 µM.

And the GI50 (SW-620; [6])?
Its GI50 is 3.31 µM.

And the CC50 (SW-620; [7])?
Its CC50 is greater than 100 µM.

What about the “Log10 TGI50” value (SW-620) of the same compound?
Its value is −4.30.

And the GI50 (SF-268; [5])?
The GI50 was 5.33 µM.

And the GI50 (SF-268; [6])?
The GI50 was 5.37 µM.

What about the CC50 (SF-268; [7]) of the same compound?
The CC50 was greater than 100 µM.

And the “Log10 TGI50” value (SF-268)?
The value was −4.01.

And the GI50 (SNB-19; [5])?
Its GI50 is 16.2 µM.

And the GI50 (SNB-19; [6])?
The GI50 was 16.2 µM.

And the CC50 (SNB-19; [7])?
The CC50 was greater than 100 µM.

What about the “Log10 TGI50” value (SNB-19) of the same compound?
Its value is greater than −4.00.

And the “Log10 TGI50” value (LOX IMVI)?
Its value is −4.19.

And the GI50 (LOX IMVI; [5])?
The GI50 was 4.61 µM.

What about the GI50 (LOX IMVI; [6]) of the same compound?
Its GI50 is 4.57 µM.

What about the CC50 (LOX IMVI; [7]) of the same compound?
Its CC50 is greater than 100 µM.

What about the GI50 (MDA-MB-435; [5]) of the same compound?
The GI50 was 1.98 µM.

And the GI50 (MDA-MB-435; [6])?
The GI50 was 2 µM.

And the CC50 (MDA-MB-435; [7])?
The CC50 was 97.7 µM.

And the “Log10 TGI50” value (MDA-MB-435)?
The value was −5.27.

And the GI50 (SK-MEL-2; [5])?
Its GI50 is 4.54 µM.

And the GI50 (SK-MEL-2; [6])?
The GI50 was 4.57 µM.

And the CC50 (SK-MEL-2; [7])?
The CC50 was greater than 100 µM.

And the “Log10 TGI50” value (SK-MEL-2)?
The value was −4.66.

And the GI50 (SK-MEL-28; [5])?
The GI50 was 34.6 µM.

And the GI50 (SK-MEL-28; [6])?
The GI50 was 34.7 µM.

What about the CC50 (SK-MEL-28; [7]) of the same compound?
The CC50 was greater than 100 µM.

What about the “Log10 TGI50” value (SK-MEL-28) of the same compound?
The value was greater than −4.00.

And the GI50 (OVCAR-5; [5])?
The GI50 was greater than 100 µM.

What about the GI50 (OVCAR-5; [6]) of the same compound?
The GI50 was greater than 100 µM.

What about the CC50 (OVCAR-5; [7]) of the same compound?
The CC50 was greater than 100 µM.

And the “Log10 TGI50” value (OVCAR-5)?
The value was greater than −4.00.

What about the “Log10 TGI50” value (ACHN) of the same compound?
The value was greater than −4.00.

What about the GI50 (ACHN; [5]) of the same compound?
Its GI50 is 6.63 µM.

And the GI50 (ACHN; [6])?
The GI50 was 6.61 µM.

What about the CC50 (ACHN; [7]) of the same compound?
Its CC50 is greater than 100 µM.

What about the “Log10 TGI50” value (RXF393) of the same compound?
Its value is greater than −4.00.

What about the GI50 (RXF393; Homo sapiens, RXF 393, read-out: Growth Inhibition GI50) of the same compound?
Its GI50 is 7.04 µM.

And the GI50 (RXF393; Homo sapiens, RXF 393, read-out: Log10 GI50 (converted))?
Its GI50 is 7.08 µM.

And the CC50 (RXF393; Homo sapiens, RXF 393, read-out: Log10 LC50 (converted))?
The CC50 was greater than 100 µM.

And the “Log10 TGI50” value (SN12C)?
The value was greater than −4.00.

And the GI50 (SN12C; [5])?
The GI50 was 20.5 µM.

And the GI50 (SN12C; [6])?
Its GI50 is 20.4 µM.

What about the CC50 (SN12C; [7]) of the same compound?
The CC50 was greater than 100 µM.

And the “Log10 TGI50” value (DU-145)?
The value was greater than −4.00.

And the GI50 (DU-145; [5])?
The GI50 was 5.36 µM.

What about the GI50 (DU-145; [6]) of the same compound?
The GI50 was 5.37 µM.

And the CC50 (DU-145; [7])?
Its CC50 is greater than 100 µM.

And the “Log10 TGI50” value (MCF7)?
Its value is greater than −4.00.

And the GI50 (MCF7; [5])?
Its GI50 is 3.17 µM.

And the GI50 (MCF7; [6])?
The GI50 was 3.16 µM.

What about the CC50 (MCF7; [7]) of the same compound?
The CC50 was greater than 100 µM.

What about the “Log10 TGI50” value (HS578T) of the same compound?
The value was −4.64.

And the GI50 (HS578T; Homo sapiens, Hs-578T, read-out: Growth Inhibition GI50)?
The GI50 was 3.67 µM.

What about the GI50 (HS578T; Homo sapiens, Hs-578T, read-out: Log10 GI50 (converted)) of the same compound?
The GI50 was 3.63 µM.

What about the CC50 (HS578T; Homo sapiens, Hs-578T, read-out: Log10 LC50 (converted)) of the same compound?
Its CC50 is greater than 100 µM.

And the “Log10 TGI50” value (BT-549)?
The value was −5.00.

And the GI50 (BT-549; [5])?
Its GI50 is 2.99 µM.

And the GI50 (BT-549; [6])?
Its GI50 is 3.02 µM.

What about the CC50 (BT-549; [7]) of the same compound?
Its CC50 is greater than 100 µM.

What about the “Log10 TGI50” value (T-47D) of the same compound?
The value was greater than −4.00.

And the GI50 (T-47D; Homo sapiens, T47D, read-out: Growth Inhibition GI50)?
The GI50 was 5.85 µM.

And the GI50 (T-47D; Homo sapiens, T47D, read-out: Log10 GI50 (converted))?
Its GI50 is 5.89 µM.

What about the CC50 (T-47D; Homo sapiens, T47D, read-out: Log10 LC50 (converted)) of the same compound?
The CC50 was greater than 100 µM.

What about the GI50 (MDA-MB-468; [5]) of the same compound?
Its GI50 is 2.83 µM.

And the GI50 (MDA-MB-468; [6])?
Its GI50 is 2.82 µM.

What about the CC50 (MDA-MB-468; [7]) of the same compound?
Its CC50 is greater than 100 µM.

What about the “Log10 TGI50” value (MDA-MB-468) of the same compound?
Its value is greater than −4.00.

And the GI50 [1]?
The GI50 was 1.39 to 3.01 µM.

What about the GI50 [2] of the same compound?
The GI50 was 1.32 to 3.9 µM.

What about the GI50 [3] of the same compound?
The GI50 was 1.96 to 3.76 µM.

What about the GI50 [4] of the same compound?
The GI50 was 1.51 to 3.46 µM.
